Columns and labels:
Format in all cases: ADME
[1] = Reductive elimination of leaving group was determined at pH 7.4; expressed as loss of parent
[2] = Half life period at pH 7.4 was determined
[3] = Half life period at pH 9.1 was determined

Activity [1] [µM/J] | T1/2 [3] | SMILES | T1/2 [2]
0.19 | ~ 30 ms | CC(=O)Oc1ccccc1C(=O)OCc1cnc([N+](=O)[O-])n1C | –
0.21 | ~ 250 ms | Cn1c(COC(=O)c2ccccc2O)cnc1[N+](=O)[O-] | ~ 70 ms

SMILES | Activity [1] [µM/J] | T1/2 [3] | T1/2 [2]
Cn1c(CBr)cnc1[N+](=O)[O-] | 0.68 | – | ~ 0.3 ms

— ChEMBL document CHEMBL1132040, “Bioreductively-activated prodrugs for targeting hypoxic tissues: elimination of aspirin from 2-nitroimidazole derivatives” (Bioorg Med Chem Lett, 1999)
